Our source for the IC50 values is paper PMC7557402, “Evaluation of Nucleoside Analogs as Antimicrobials Targeting Unique Enzymes in Borrelia burgdorferi” (Pathogens, 2020).

The test system of the assay is B. burgdorferi strain N40. Briefly: microbe, parasite or virus in culture. Particulars: Borreliella burgdorferi, N40; bioluminescence; stated after the 72 h results, time not given explicitly; read-out: IC50 (loss of B. burgdorferi vitality). In kind it is cell-based, Borrelia burgdorferi. How it is done:
B. burgdorferi N40 strain carrying a firefly luciferase gene (Bbluc), which is a derivative of the N40D10/E9 clone, was used in this study and is labeled as N40 throughout. N40 was cultured at 33 °C in Barbour-Stoenner-Kelly-II (BSK-II) medium supplemented with 6% rabbit serum (BSKII-RS). Bacterial counts were determined under 400× magnification using a hemocytometer and a dark field microscope.
The luciferase expressing B. burgdorferi N40 strain was grown to a density of ~10^8 spirochetes/mL and divided into two aliquots. One aliquot was incubated at 60 °C for 30 min to kill the spirochetes. […] The culture was mixed with the substrate by shaking in the dark, incubated at 37 °C for 5 min in a Spectramax M2 microplate reader (Molecular Devices, San Jose, CA, USA) and the bioluminescence measured. […]
Nucleosides and nucleoside analogs were prepared as sterile 1 mM stock solutions in distilled water (MSeA, IADO, FSBA, and dEt-ImmA) or in DMSO (PurTA). […] Photon emission due to luciferase activity was measured at three time points, after: (a) 24 h, (b) 72 h, and (c) 7 days of treatments to observe the effect of inhibitors on B. burgdorferi culture. At the end of each time point, bioluminescence was measured as described above. […]

For orientation: IC50 means the concentration that inhibits the measured activity by half. On to `Nc1ncnc2c1ncn2[C@@H]1O[C@H](CI)[C@@H](O)[C@H]1O` [IADO, 5′-deoxy-5′-iodoadenosine], for which the IC50 was roughly 1000 nM.
